According to patent US12038445B2, “Liver disease-related biomarkers and methods of use thereof” (Human Metabolomics Institute, Inc., priority 2016, dated 2024):
Entries after “also recorded” stand apart in the source; their conditions may differ.

How the values were obtained:
[1] = Male mice treated with STZ alone; assay type: in vivo; settings: male mice treated with STZ alone for 20 weeks
WRL-68 [2] = assay: Cell proliferation after BA treatment, WRL-68; assay type: cell-based, human; settings: BA treatment 14 days in high glucose (27.5 mM) and oleic acid (0.3 mM)
Procedure: (§1) Normal human hepatic cell lines WRL-68 and THLE-2 were purchased from Sigma. For BA treatment, cells were harvested, rinsed twice in PBS, resuspended in sugar-free DMEM (Life Technologies) supplemented with 10% charcoal-stripped FBS and seeded into 6-well plate at a density of 5×10^4/well. […] After 14 days treatment, normal medium (DMEM-F12 containing 10% FBS) were added into each well to replace the spent media. Cell proliferation and anchorage-independent growth assays were performed in the normal medium. Additionally, western blot assay was performed to analyze the alteration of oncoprotein c-myc expression.

THLE-2 = assay: Cell proliferation after BA treatment, THLE-2; assay type: cell-based, human; settings: BA treatment 14 days in high glucose (27.5 mM) and oleic acid (0.3 mM)
Procedure: as §1

HepG2 = assay: Cell proliferation after BA treatment, HepG2; assay type: cell-based, human; settings: BA treatment 14 days, 100 μM
Procedure: (§2) Human cancer cell line, HepG2, was purchased from Sigma and maintained in DMEM-F12 (Life Technologies) supplemented with 10% fetal bovine serum (FBS, Life Technologies). For BA treatment, cells were harvested, rinsed twice with PBS, seeded in sugar-free DMEM (Life Technologies) supplemented with 10% charcoal-stripped FBS and 6 mM glucose. […] The spent media was replaced by fresh normal medium (DMEM-F12 containing 10% FBS) 14 days later. And then cells were used for cell proliferation assay and western blot analysis for the tumor suppressor protein CEBPa.

WRL-68 [3] = assay: Anchorage-independent growth assay, WRL-68; assay type: cell-based, human; settings: BA treatment under high glucose and high fat condition
Procedure: as §1, with “5×10^4/well. We set the glucose (Glc, Sigma) at 27.5 mM and Oleic acid (OA, Sigma) at 0.3 mM to mimic high glucose and fat conditions in vitro.” for “5×10^4/well.”

c-myc = assay: Western blot of oncoprotein c-myc in WRL-68 cells; assay type: cell-based, human
Procedure: as §1, with “5×10^4/well. We set the glucose (Glc, Sigma) at 27.5 mM and Oleic acid (OA, Sigma) at 0.3 mM to mimic high glucose and fat conditions in vitro.” for “5×10^4/well.”
(§3) Primary antibodies for c-myc (Santa Cruz), CEBPa (Santa Cruz) and Actin (Li-cor) were purchased and used with a diluted concentration as indicated by the manufacturers.

CEBPα = assay: Western blot of tumor suppressor protein CEBPα in HepG2 cells; assay type: cell-based, human
Procedure: as §2, §3

Row | Structure (SMILES) | HCC formation [1] | WRL-68 proliferation (WRL-68 [2]) | THLE-2 proliferation (THLE-2) | HepG2 cell proliferation (HepG2) | anchorage-independent growth of WRL-68 compared to those treated with high glucose and high fat (WRL-68 [3]) | anchorage-independent growth of WRL-68 compared with parental cells (WRL-68 [3]) | expression of oncoprotein c-myc (c-myc) | expression of tumor suppressor gene CEBPα (CEBPα)
1 | CN(N=O)C(=O)N[C@H]1C(O)O[C@H](CO)[C@@H](O)[C@@H]1O (mixture of isomers) [STZ, streptozotocin] | no HCC was observed | – | – | – | – | – | – | –
2 | C[C@H](CCC(=O)O)[C@H]1CC[C@H]2[C@@H]3[C@H](O)C[C@@H]4C[C@H](O)CC[C@]4(C)[C@H]3C[C@H](O)[C@]12C [CA, cholic acid] | – | significantly promoted | significantly promoted | significantly promoted | – | – | – | –
3 | C[C@H](CCC(=O)O)[C@H]1CC[C@H]2[C@@H]3CC[C@@H]4C[C@H](O)CC[C@]4(C)[C@H]3C[C@H](O)[C@]12C [DCA, deoxycholic acid] | – | significantly promoted | significantly promoted | significantly promoted | significantly increased | didn't enhance | increased | –
4 | CC(CCC(=O)NCC(=O)O)C1CCC2C3C(O)CC4CC(O)CCC4(C)C3CCC12C (centres unmarked) [GCDCA, glycochenodeoxycholic acid] | – | very little influence | – | – | – | – | – | –
5 | C[C@H](CCC(=O)NCCS(=O)(=O)O)[C@H]1CC[C@H]2[C@@H]3[C@H](O)C[C@@H]4C[C@H](O)CC[C@]4(C)[C@H]3C[C@H](O)[C@]12C [TCA, taurocholic acid] | – | very little influence | – | – | – | – | – | –
6 | C[C@H](CCC(=O)NCCS(=O)(=O)O)[C@H]1CC[C@H]2[C@@H]3[C@H](O)C[C@@H]4C[C@H](O)CC[C@]4(C)[C@H]3CC[C@]12C [TCDCA, taurochenodeoxycholic acid] | – | significantly promoted | significantly promoted | significantly promoted; also recorded: markedly increased | – | – | increased | reduced
